Test results as given in PMC9145945, “Machine-Learning Guided Discovery of Bioactive Inhibitors of PD1-PDL1 Interaction” (Pharmaceuticals, 2022).
“And” between values parts separate entries of the source, which are not always exact repeats. Identical values can stand only once. Each block holds one compound with its values, some of them ahead of it.

Legend:
[1] = target: T1, human PD1-PDL1 interaction (Homo sapiens, UniProt Q9NZQ7); assay: HTRF human PD1-PDL1 binding assay; settings: for IC50: dose–response 0–100 µM
T1 construct: purchased Perkin Elmer
Text: The homogeneous time-resolved fluorescence (HTRF) binding assay was used to test these top 20 molecules for their potential blockade of human PD1-PDL1 interaction. We have previously established the utility of the HTRF assay over similar homogenous assay like AlphaLISA, with the latter proving to be more promiscuous in identifying potential false positives against PD1-PDL1 target.
The potential activity of our virtual hits in inhibiting PD1-PDL1 interaction was investigated using the homogeneous time-resolved fluorescence (HTRF) binding assay from Perkin Elmer. The assay was carried out according to the manufacturer’s instructions using the HTRF protocol in BioTek Synergy Neo^TM microplate reader. […] The assay mixture with only PDL1 protein, but not PD1 protein served as a negative control denoting 0% PD1-PDL1 interaction. […] The dose–response data were analyzed using GraphPad Prism to determine IC50 values using nonlinear regression variable slope models.

protein kinase D (PKD) = target: protein kinase D (PKD); parameters: method as in PMID 20497126; settings: VEGF-treated endothelial cells; read-out: IC50 against all three PKD isoforms; cited from earlier work
PD1-PDL1 interaction = tested on: PD1-PDL1 interaction; parameters: method as in PMID 34117723; settings: read-out: IC50, PD1-PDL1 inhibitor; cited from earlier work
[2] = target: T1, human PD1-PDL1 interaction; settings: Table S1; ref BMS Patent 1: WO2015034820A1; cited from earlier work
[3] = tested on: ceramide synthase 1 (CerS1); settings: mice fed with high-fat diet; cited from earlier work
[4] = 25 µM single-dose test concentration

T1 sequence (Q9NZQ7 19-238 limits assumed): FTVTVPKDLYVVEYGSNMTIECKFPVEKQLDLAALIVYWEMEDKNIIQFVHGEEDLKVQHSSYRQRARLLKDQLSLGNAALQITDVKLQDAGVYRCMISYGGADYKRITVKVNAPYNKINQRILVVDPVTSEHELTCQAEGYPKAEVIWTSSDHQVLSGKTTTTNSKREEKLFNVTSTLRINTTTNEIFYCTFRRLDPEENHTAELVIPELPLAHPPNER

Structure (SMILES): Cc1cc(/C=C/c2ccc3cc(N(C)C)ccc3[n+]2C)c(C)n1-c1ccccc1 [Pyrvinium]
IC50 (PD1-PDL1 interaction): ~29.7 µM

Structure (SMILES): COc1cc(OCc2cccc(-c3ccccc3)c2C)cc(OC)c1CN1CCCC[C@H]1C(=O)O [Compound 1--1]
Activity (classification used for ML modeling) [2]: ACTIVE

Structure (SMILES): C[C@@](N)(CO)CCc1ccc(OCc2ccc(Cl)c(Cl)c2)cc1 [Compound 2]
% PD1-PDL1 Inhibition [1, 4]: 41.4 ± 0.9%
IC50 [1]: ~33.6 µM
IC50 ([1]; listed as P053): 33.6 µM
fatty acid oxidation in skeletal muscles [3]: increased fatty acid oxidation

Further lines, with some results ahead:

inhibition at 25 µM [1, 4]: -4.4 ± 1.2%
Structure (SMILES): Cc1c(COc2ccc(CN3CCCCC3C(=O)O)cc2Br)cccc1-c1ccccc1 (centres unmarked) [Compound 18]

% PD1-PDL1 Inhibition [1, 4]: 50.9 ± 1.3%
IC50 [1]: ~22 µM and ~22.4 µM
IC50 ([1]; listed as CRT5): 22.4 µM
Structure (SMILES): CCOc1ccc2cc(-c3cc(-c4cccc(C(=O)NCCN(C)C)c4)cnc3N)ccc2c1 [Compound 1]
IC50 (protein kinase D (PKD)): 0.001 to 0.002 µM
